# Assays:
# [1] = tested on: p-ERK in PMA differentiated THP-1 macrophages; assay: p-ERK level in PMA differentiated THP-1 macrophages; format: cell-based; conditions: 10 μM, 1 hr exposure, vs DMSO control
# Method: (§1) Phospho-ERK 1/2 (p-ERK) activity was measured using the Bioplex Pro Cell Signalling assay kit for ERK 1/2 (Biorad) and the Luminex MAGPIX® system according to the manufacturers' instructions. Measurements of p-ERK in CD4+ cells followed the protocol described by Gorelik et al. (J. Immunol. 2007; 179(8):5553-5563). The levels of the phosphoprotein phospho-ERK (p-ERK) in cell lysates after 1 h exposure to mebendazole (10 μM)), fenbendazole (10 μM) or control (DMSO) in monocytoid THP-1 cells and PMA differentiated THP-1 macrophages was measured using the Luminex MAGPIX® system and the commercially available kit (Biorad, Hercules, Calif.) described above. The assay is based on binding of the target of interest via antibodies to magnetic beads. The target is detected using biotinylated antibodies with a fluorescent reporter. The assays were performed according to the manufacturer's instructions. Briefly, the protein concentrations in the cell lysates were first determined using a Micro-BCA method (ThermoFischer Scientific, Waltham, Mass., USA) to ensure equal amounts of samples in the assay and then measurements were performed by incubating the cell lysate samples with beads, then with detection antibody, and finally with streptavidin-PE. The fluorescence was measured using the MAGPIX instrument (BioRad) and the concentration levels were determined by fitting to a standard curve.
# [2] = tested on: Phospho-ERK 1/2 (p-ERK) in monocytoid THP-1 cells; assay: p-ERK level in monocytoid THP-1 cells (Bioplex Pro / Luminex MAGPIX); format: cell-based; conditions: for effect on p-ERK levels: 10 μM, 1 hr exposure, monocytoid THP-1 cells, vs DMSO control
# Method: as §1, with “Monocytoid THP-1 cells were obtained from ATCC (Manassas, Va.) and were cultured in RPMI-1640 medium, supplemented with 10% heat-inactivated fetal bovine serum (HIFBS), 2 mM L-glutamine, 100 U/100 […] penicillin/streptomycin and 0.05 mM 2-mercaptoethanol (all from Sigma, St Louis, Mo.). All cell lines were cultured at 37° C. in a humidified atmosphere containing 5% CO2. Phospho-ERK” for “Phospho-ERK”, “179(8):5553-5563). Phosphorylation of ERK by upstream MAPK proteins such as MEK results in activation of ERK. Measurement of p-ERK levels in cells is used as an indicator of ERK signalling. The level of p-ERK in monocytoid THP-1 cells was measured using the Bioplex Pro Cell Signalling assay kit for ERK 1/2 (Biorad) and the Luminex MAGPIX® system. The assay is based on binding of the target of interest via antibodies to magnetic beads. The target is detected using biotinylated antibodies with a fluorescent reporter. The assay was performed according to the manufacturer's instructions. The levels of p-ERK in monocytoid THP-1 cells and PBMC cells were measured using the Bioplex Pro Cell Signalling assay kit for ERK 1/2 (Biorad) and the Luminex MAGPIX® system. The assay is based on binding of the target of interest via antibodies to magnetic beads. The target is detected using biotinylated antibodies with a fluorescent reporter. The assay was performed according to the manufacturer instructions.” for “179(8):5553-5563).”
# [3] = low-dose (Vermox), 6276 subjects, 39 clinical trials; cited from earlier work
# [4] = Treatment of sarcoidosis patient, PET/CT examination; format: in vivo, human; conditions: one patient, 200 mg daily for six days then 400 mg daily (2×200 mg), after six weeks
# Method: A daily dose of 200 mg (given as 2×100 mg) of mebendazole was administered for six consecutive days.
# [5] = Serum mebendazole concentration in treated patient; format: in vivo; conditions: human, 400 mg daily (2×200 mg), daily dose 400 mg (2×200 mg), after six weeks
# Method: The serum mebendazole concentration at this time point was 71 ng/ml.
# [6] = tested on: anti-(double stranded)-DNA antibodies in serum of NZBNZWF1 mice; assay: In vivo efficacy study in SLE model, NZBNZWF1 mice, serum anti-dsDNA antibodies
# Method: 40 female NZBNZWF1 mice (Envigo Europe) were fed and watered ad libitum and acclimatised for approximately 1 week before initiation of the experiment. Mice were 14 weeks old at the initiation of the experiment, and 16 weeks are the start of treatment. The mice were divided into 4 treatment groups of 10 mice each at the initiation of the experiment: • 1. Vehicle control: treatment with vehicle only • 2. Positive control: treatment with methotrexate (15 mg/kg) • 3. […] The positive control treatment of 15 mg/kg methotrexate was administered intraperitoneally 3 times per week for 8 weeks (weeks 16-24 of age of the mice). […] Serum was collected from all mice at initiation of the experiment (mice age 14 weeks), at start of treatment (mice age 16 weeks), and every second week during treatment (mice age 18, 20, 22, and 24 weeks), after treatment (mice age 26 and 28 weeks) and at termination (mice age 30 weeks). The serum samples were analysed for levels of antibodies directed against double stranded DNA (dsDNA) (anti-ds-DNA antibodies).
# [7] = long-term high-dose (40 mg/kg/day); cited from earlier work
# [8] = tested on: p-ERK in CD4+ T-cells from SLE patient; assay: p-ERK in CD4+ T-cells isolated from PBMCs from an SLE patient; format: cell-based, human; conditions: 10 μM and 30 μM
# Method: (§2) Peripheral blood mononuclear cells (PBMCs) from healthy donors were isolated by 1.077 g/ml Ficoll-Paque centrifugation and cryopreserved as described by Larsson et al. (Int J Cancer 1992; 50: 177-185). Cell viability was determined by trypan blue exclusion test. SLE PBMCs were obtained Astarte Biologics, WA, USA (cat no 1035, lot 3429DE16) in cryopreserved vials (10 million cells). CD4+ cells were subsequently isolated with an autoMACS® instrument and a CD4+ isolation kit from Miltenyi Biotec according to the manufacturer's description and the method described by Gorelik et al. (J. Immunol. 2007; 179(8):5553-5563). Phospho-ERK 1/2 (p-ERK) activity was measured using the Bioplex Pro Cell Signalling assay kit for ERK 1/2 (Biorad) and the Luminex MAGPIX® system according to the manufacturers' instructions. Measurements of p-ERK in CD4+ cells followed the protocol described by Gorelik et al. (J. Immunol. 2007; 179(8):5553-5563). CD4+ T-Cells were isolated from PBMCs obtained from the venous blood of healthy donors and patients with SLE using the method described in Gorelik et al. (J. Immunol. 2007; 179(8):5553-5563). The level of p-ERK in the isolated CD4+ T-Cells was measured using the Bioplex Pro Cell Signalling assay kit for ERK 1/2 (Biorad) and the Luminex MAGPIX® system.
# [9] = tested on: p-ERK in PBMC cells; assay: p-ERK level in peripheral blood mononuclear cells (PBMC); format: cell-based; conditions: PBMCs, FIG. 3b
# Method: as §2, with “179(8):5553-5563).” for “179(8):5553-5563). CD4+ T-Cells were isolated from PBMCs obtained from the venous blood of healthy donors and patients with SLE using the method described in Gorelik et al. (J. Immunol. 2007; 179(8):5553-5563).”, “levels” for “level”, “monocytoid THP-1 cells and PBMC cells were” for “the isolated CD4+ T-Cells was”, “system. The assay is based on binding of the target of interest via antibodies to magnetic beads. The target is detected using biotinylated antibodies with a fluorescent reporter. The assay was performed according to the manufacturer instructions.” for “system.”
Compound,effect on p-ERK levels [1],effect on p-ERK levels [2],"effect on p-ERK levels in THP-1 cells ([2]; FIG. 2, comparison with other tubulin-active agents)",dose dependence of p-ERK level ([2]; THP-1 cells not treated with U0126),"p-ERK fluorescence reading ([2]; THP-1 cells not treated with U0126, 30 μM mebendazole)","p-ERK fluorescence reading ([2]; THP-1 cells not treated with U0126, 1 μm mebendazole)",subjects with related adverse events [3],PET scan outcome: FDG-signal and size of hilar and mediastinal nodes [4],concentration at 6 weeks [5],"concentration of anti-dsDNA antibodies in serum vs vehicle control group or methotrexate positive control group ([6]; 25 mg/kg or 50 mg/kg p.o., 5 days per week, weeks 16-24)","concentration of anti-dsDNA antibodies in serum, higher dose vs lower dose ([6]; 50 mg/kg vs 25 mg/kg p.o.)",tolerability [7],p-ERK activity compared with CD4+ T-cells from a healthy donor [8],dose dependence of p-ERK level [9]
"COC(=O)Nc1nc2ccc(C(=O)c3ccccc3)cc2[nH]1 [mebendazole, Mebendazole]",significantly increased,significantly increased,significantly increased,increased with an increasing dose,approximately 1200 arb units,approximately 500 arb units,less than 1%,sarcoidosis in remission,71 ng/mL,lower concentrations,lower concentration,generally well tolerated,restored the activity of p-ERK to at least the same level,increased with an increasing dose
"COC(=O)Nc1nc2ccc(Sc3ccccc3)cc2[nH]1 [Fenbendazole, fenbendazole]",did not increase,did not increase,,,,,,,,,,,,

# Reference: patent US11504356B2, “Treatment for inflammatory disease” (REPOS PHARMA AB, priority 2017, dated 2022)
